Laboratory results as given in patent US20260000676A1, “CHROMAN DERIVATIVES AS ESTROGEN RECEPTOR DEGRADERS” (THE REGENTS OF THE UNIVERSITY OF MICHIGAN, priority 2022, published 2026).
pIC50: −log10 of the molar value.

Key:
CRBN/DDB1 = CRBN/DDB1 (Homo sapiens (Human), UniProt Q96SW2); assay: HTRF binding assay to CRBN/DDB1; conditions: read-out: CRBN HTRF IC50
Experimental: The binding potency was determined using HTRF assay technology (Perkin Elmer). Compounds were serially diluted in DMSO and 0.2 μL volume was transferred to white 384-well plate.

ER [1] = biological target: T1, ER (Homo sapiens (Human), UniProt P03372); assay: In-cell western (ICW) ER degradation assay in MCF-7 cells; format: cell-based; conditions: MCF7, 16 hrs; for DC50: ER degradation; for Dmax: MCF7, maximal ER degradation; for MCF7 Dmax %: maximal ER degradation
ER [2] = biological target: T1, ER; assay: In-cell western (ICW) ER degradation assay in T47D cells; format: cell-based; conditions: 16 hrs; for DC50: ER degradation
Experimental: ERa degradative activity of compounds can be assessed in MCF-7 and T47D Cells. MCF-7 and T47D cell are seeded and are subsequently treated with the compounds at certain concentrations (e.g., 0.02 to 300 nM). DMSO can be used as vehicle control. Cells are fixed and are blocked with Intercept (PBS) Blocking Buffer (e.g., Li-COR, Odyssey Blocking Buffer), and are stained with ER (e.g., 1:500, Cell signaling) primary antibody for overnight at cold room. Secondary Antibody (e.g., IRDye 800CW Goat anti-Rabbit IgG) and CellTag 700 Stain are added in Intercept (PBS) Blocking Buffer. Finally, cell plate is placed in incubator to dry. Image and signal are captured on Odyssey® DLx Imaging System.
Day 3: After 16 hrs of compounds treatment, cells were fixed by 4% PFA and permeabilized with elution buffer (0.1% Triton X-100 in 1% PBS Solution). Subsequently, cells were blocked with Intercept (PBS) Blocking Buffer (Li-COR, Odyssey Blocking Buffer), and were stained with ER (1:500, Cell signaling) primary antibody for overnight at cold room.
Day 4: Remove the buffer, add IRDye 800CW Goat anti-Rabbit IgG Secondary Antibody (1:2000) and CellTag 700 Stain (1:500) in Intercept (PBS) Blocking Buffer. Finally, cell plate is placed in incubator to dry. Image and signal were captured on Odyssey® DLx Imaging System.

Chain of CRBN/DDB1 (Q96SW2 whole entry): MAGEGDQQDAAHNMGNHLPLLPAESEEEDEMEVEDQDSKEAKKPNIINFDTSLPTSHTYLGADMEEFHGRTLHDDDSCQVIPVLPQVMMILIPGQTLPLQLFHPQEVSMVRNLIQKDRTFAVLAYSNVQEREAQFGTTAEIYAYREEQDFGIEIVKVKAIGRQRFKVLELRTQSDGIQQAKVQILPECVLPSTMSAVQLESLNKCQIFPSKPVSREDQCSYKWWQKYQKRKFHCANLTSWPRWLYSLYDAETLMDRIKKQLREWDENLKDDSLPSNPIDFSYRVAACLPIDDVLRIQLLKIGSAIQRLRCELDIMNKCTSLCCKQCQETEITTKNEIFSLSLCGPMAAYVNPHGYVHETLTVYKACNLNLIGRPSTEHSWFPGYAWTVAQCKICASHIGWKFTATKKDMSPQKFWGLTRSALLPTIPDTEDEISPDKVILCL
Chain of CRBN/DDB1 (Q16531 whole entry partner): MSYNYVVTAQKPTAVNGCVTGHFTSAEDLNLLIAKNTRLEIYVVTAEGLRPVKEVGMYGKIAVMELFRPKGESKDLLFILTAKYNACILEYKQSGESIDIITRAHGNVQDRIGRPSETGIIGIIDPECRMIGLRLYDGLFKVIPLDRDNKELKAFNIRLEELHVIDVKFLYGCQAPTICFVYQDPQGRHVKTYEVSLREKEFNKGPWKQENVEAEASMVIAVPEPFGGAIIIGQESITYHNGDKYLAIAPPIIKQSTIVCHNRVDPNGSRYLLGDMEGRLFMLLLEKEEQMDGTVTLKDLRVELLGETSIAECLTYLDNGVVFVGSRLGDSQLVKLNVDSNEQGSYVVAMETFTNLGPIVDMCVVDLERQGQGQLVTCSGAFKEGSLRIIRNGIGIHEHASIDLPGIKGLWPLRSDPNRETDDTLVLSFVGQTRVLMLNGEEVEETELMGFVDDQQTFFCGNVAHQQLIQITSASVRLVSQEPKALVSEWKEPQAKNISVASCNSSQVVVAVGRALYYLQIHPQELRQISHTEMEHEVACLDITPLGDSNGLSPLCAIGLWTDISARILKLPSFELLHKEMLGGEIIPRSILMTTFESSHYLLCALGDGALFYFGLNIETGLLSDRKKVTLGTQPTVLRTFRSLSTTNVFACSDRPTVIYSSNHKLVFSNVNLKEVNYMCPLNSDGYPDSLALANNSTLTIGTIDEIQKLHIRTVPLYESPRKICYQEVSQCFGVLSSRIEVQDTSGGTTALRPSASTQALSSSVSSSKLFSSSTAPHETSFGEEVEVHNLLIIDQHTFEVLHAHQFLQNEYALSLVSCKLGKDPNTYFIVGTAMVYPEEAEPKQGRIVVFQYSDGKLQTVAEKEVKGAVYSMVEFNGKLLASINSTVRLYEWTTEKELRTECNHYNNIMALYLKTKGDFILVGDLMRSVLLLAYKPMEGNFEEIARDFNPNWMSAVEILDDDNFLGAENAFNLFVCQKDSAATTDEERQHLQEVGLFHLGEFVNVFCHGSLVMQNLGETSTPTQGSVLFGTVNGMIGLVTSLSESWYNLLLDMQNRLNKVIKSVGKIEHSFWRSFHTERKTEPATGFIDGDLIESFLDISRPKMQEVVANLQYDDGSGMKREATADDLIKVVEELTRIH
T1 sequence (P03372 whole entry): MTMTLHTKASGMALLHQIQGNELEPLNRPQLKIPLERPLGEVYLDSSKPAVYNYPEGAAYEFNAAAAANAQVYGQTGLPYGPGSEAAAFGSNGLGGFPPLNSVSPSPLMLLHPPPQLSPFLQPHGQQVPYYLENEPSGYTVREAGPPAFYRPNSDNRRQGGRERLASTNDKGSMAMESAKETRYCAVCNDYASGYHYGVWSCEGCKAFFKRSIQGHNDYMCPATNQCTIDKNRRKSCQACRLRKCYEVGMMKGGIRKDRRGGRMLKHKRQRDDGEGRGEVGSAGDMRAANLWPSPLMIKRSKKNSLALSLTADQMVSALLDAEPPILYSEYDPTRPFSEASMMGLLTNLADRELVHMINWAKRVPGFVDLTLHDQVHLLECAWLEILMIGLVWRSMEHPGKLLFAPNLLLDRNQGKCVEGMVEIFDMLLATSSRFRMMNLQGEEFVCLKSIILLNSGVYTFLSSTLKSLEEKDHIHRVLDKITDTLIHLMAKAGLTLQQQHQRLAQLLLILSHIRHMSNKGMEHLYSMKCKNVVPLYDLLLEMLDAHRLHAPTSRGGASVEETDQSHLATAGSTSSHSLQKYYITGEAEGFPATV

| T47D Dmax % (ER [2]; maximal ER degradation) | Compound | pIC50 (CRBN/DDB1) | DC50 (ER [1]) | Dmax (ER [1]) | DC50 (ER [2]) | Dmax (ER [2]; maximal ER degradation) | MCF7 Dmax % (ER [1]) |
| --- | --- | --- | --- | --- | --- | --- | --- |
|  | COc1cc(N2CCC(CN3CCN4c5ccc(C(=O)NC6CCC(=O)NC6=O)nc5OC[C@H]4C3)CC2)ccc1C1c2ccc(O)cc2OCC1c1ccccc1 (stereo in doubt) [Compound A134, (4aR)—N-(2,6-dioxopiperidin-3-yl)-3-((1-(4-((3R,4S)-7-hydroxy-3-phenylchroman-4-yl)-3-methoxyphenyl)piperidin-4-yl)methyl)-1,2,3,4,4a, 5-hexahydropyrazino[1,2-d]pyrido[2,3-b][1,4]oxazine-8-carboxamide] | 5.30 to 6.30 | < 1 nM | ≥ 75% | < 1 nM | ≥ 75% |  |
|  | O=C1CCC(NC(=O)c2ccc(N3CCC(CN4CCN(c5ccc([C@H]6c7ccc(O)cc7OC[C@H]6c6ccccc6)cc5)CC4)CC3)cn2)C(=O)N1 (single isomer, unassigned) [Compound A128] | < 5.30 | < 1 nM |  | < 1 nM | 50 to 75% | B (“B”: >50% and <75%) |
|  | COc1cc(N2CCC(CN3CCN4c5ccc6c(c5OC[C@H]4C3)CN(C3CCC(=O)NC3=O)C6=O)CC2)c(F)cc1[C@H]1c2ccc(O)cc2OC[C@H]1c1ccccc1 (stereo partly drawn) [Compound A105, (R)-3-((S)-7-((1-(2-fluoro-4-((3R,4R)-7-hydroxy-3-phenylchroman-4-yl)-5-methoxyphenyl)piperidin-4-yl)methyl)-1-oxo-1,3,5,5a,6,7,8,9-octahydro-2H-pyrazino[1′,2′:4,5][1,4]oxazino[2,3-e]isoindol-2-yl)piperidine-2,7-dione] | > 7.30 | 10 to 100 nM | 25 to 50% | 1 to 10 nM | 25 to 50% |  |
|  | O=C1CCC(Nc2ccc(C34CCN(CC5COC6(CCN(c7ccc([C@@H]8c9ccc(O)cc9OC[C@@H]8c8ccccc8)cc7F)CC6)C5)CC3C4(F)F)cc2)C(=O)N1 (stereo partly drawn) [Compound A159, 3-((4-(7,7-difluoro-3-(((R)-8-(2-fluoro-4-((3S,4R)-7-hydroxy-3-phenylchroman-4-yl)phenyl)-1-oxa-8-azaspiro[4.5]decan-3-yl)methyl)-3-azabicyclo[4.1.0]heptan-6-yl)phenyl)amino)piperidine-2,6-dione] | 5.30 to 6.30 | 1 to 10 nM | 25 to 50% | 1 to 10 nM | 50 to 75% |  |
|  | O=C1CC[C@@H](N2Cc3c(ccc4c3OC[C@@H]3CN(C[C@@H]5COC6(CCN(c7ccc([C@H]8c9ccc(O)cc9OC[C@H]8c8ccccc8)cc7F)CC6)C5)CCN43)C2=O)C(=O)N1 [Compound A155, (R)-3-((S)-7-(((R)-8-(2-fluoro-4-((3R,4S)-7-hydroxy-3-phenylchroman-4-yl)phenyl)-1-oxa-8-azaspiro[4.5]decan-3-yl)methyl)-1-oxo-1,3,5,5a,6,7,8,9-octahydro-2H-pyrazino[1′,2′:4,5][1,4]oxazino[2,3-e]isoindol-2-yl)piperidine-2,6-dione] | > 7.30 | > 100 nM | < 25% | 1 to 10 nM | 25 to 50% |  |
|  | O=C1CCC(Nc2ccc(C3CCN(CC4CC5(CCN(c6ccc([C@@H]7c8ccc(O)cc8OC[C@@H]7c7ccccc7)cc6)CC5)C4)CC3)c(F)c2)C(=O)N1 (single isomer, unassigned) [Compound A75] | 6.30 to 7.30 | < 1 nM | 25 to 50% | 1 to 10 nM | 50 to 75% |  |
| B (“B”: >50% and <75%) | O=C1CC[C@@H](N2Cc3cc4c(cc3C2=O)OC[C@@H]2CN(C[C@H]3COC5(CCN(c6ccc([C@H]7c8ccc(O)cc8OC[C@H]7c7ccccc7)cc6)CC5)C3)CCN42)C(=O)N1 [Compound A152, (R)-3-((S)-3-(((S)-8-(4-((3R,4S)-7-hydroxy-3-phenylchroman-4-yl)phenyl)-1-oxa-8-azaspiro[4.5]decan-3-yl)methyl)-8-oxo-1,2,3,4,4a,5,8,10-octahydro-9H-pyrazino[1′,2′:4,5][1,4]oxazino[2,3-f]isoindol-9-yl)piperidine-2,6-dione] | 6.30 to 7.30 | 10 to 100 nM |  | 1 to 10 nM |  | B (“B”: >50% and <75%) |
|  | O=C1CC[C@@H](N2Cc3c(ccc4c3OC[C@@H]3CN(C[C@H]5COC6(CCN(c7ccc([C@H]8c9ccc(O)cc9OC[C@H]8c8ccccc8)cc7)CC6)C5)CCN43)C2=O)C(=O)N1 [Compound A133, (R)-3-((S)-7-(((S)-8-(4-((3R,4S)-7-hydroxy-3-phenylchroman-4-yl)phenyl)-1-oxa-8-azaspiro[4.5]decan-3-yl)methyl)-1-oxo-1,3,5,5a,6,7,8,9-octahydro-2H-pyrazino[1′,2′:4,5][1,4]oxazino[2,3-e]isoindol-2-yl)piperidine-2,6-dione] | > 7.30 | 1 to 10 nM | 25 to 50% | < 1 nM | 25 to 50% |  |
|  | O=C1CCC(Nc2ccc(C34CCN(CC5COC6(CCN(c7ccc([C@H]8c9ccc(O)cc9OC[C@H]8c8ccccc8)cc7F)CC6)C5)CC3C4(F)F)cc2)C(=O)N1 (stereo partly drawn) [Compound A156, 3-((4-(7,7-difluoro-3-(((R)-8-(2-fluoro-4-((3R,4S)-7-hydroxy-3-phenylchroman-4-yl)phenyl)-1-oxa-8-azaspiro[4.5]decan-3-yl)methyl)-3-azabicyclo[4.1.0]heptan-6-yl)phenyl)amino)piperidine-2,6-dione] | 5.30 to 6.30 | > 100 nM | < 25% | < 1 nM | 25 to 50% |  |
|  | O=C1CCC(Nc2ccc(N3CCN(CC4CC5(CCN(c6ccc([C@@H]7c8ccc(O)cc8OC[C@@H]7c7ccccc7)cc6)CC5)C4)CC3)c(F)c2)C(=O)N1 (stereo partly drawn) [Compound A52, 3-((3-fluoro-4-(4-((7-(4-((3S,4R)-7-hydroxy-3-phenylchroman-4-yl)phenyl)-7-azaspiro[3.5]nonan-2-yl)methyl)piperazin-1-yl)phenyl)amino)piperidine-2,6-dione] | 6.30 to 7.30 | > 100 nM | < 25% | < 1 nM | 25 to 50% |  |
|  | CC(C(=O)N1Cc2cc3c(cc2C1)C(=O)N(C1CCC(=O)NC1=O)C3=O)N1CCC2(CCN(c3ccc([C@H]4c5ccc(O)cc5OC[C@H]4c4ccccc4)cc3)CC2)CC1 (single isomer, unassigned) [Compound A57] | < 5.30 | > 100 nM | < 25% | > 100 nM | < 25% |  |
|  | O=C1CCC(NC(=O)c2ccc(N3CCN(CC4CC5(CCN(c6ccc([C@@H]7c8ccc(O)cc8OC[C@@H]7c7ccccc7)cc6)CC5)C4)CC3)cn2)C(=O)N1 (stereo partly drawn) [Compound A85, N-(2,6-dioxopiperidin-3-yl)-5-(4-((7-(4-((3S,4R)-7-hydroxy-3-phenylchroman-4-yl)phenyl)-7-azaspiro[3.5]nonan-2-yl)methyl)piperazin-1-yl)picolinamide] | < 5.30 | < 1 nM | 50 to 75% | 1 to 10 nM | 50 to 75% |  |
|  | O=C1CC[C@@H](Nc2ccc(C3CCN(C[C@H]4COC5(CCN(c6ccc([C@H]7c8ccc(O)cc8OC[C@H]7c7ccccc7)cc6)CC5)C4)CC3)c(F)c2)C(=O)N1 (single isomer, unassigned) [Compound A164] | > 7.30 | < 1 nM | 25 to 50% | 1 to 10 nM | 50 to 75% |  |
|  | O=C1CC[C@H](NC(=O)c2ccc3c(n2)OC[C@H]2CN(C[C@@H]4COC5(CCN(c6ccc([C@@H]7c8ccc(O)cc8OC[C@@H]7c7ccccc7)cc6)CC5)C4)CCN32)C(=O)N1 [Compound A148, (R)-N-((S)-2,6-dioxopiperidin-3-yl)-3-(((R)-8-(4-((3S,4R)-7-hydroxy-3-phenylchroman-4-yl)phenyl)-1-oxa-8-azaspiro[4.5]decan-3-yl)methyl)-1,2,3,4,4a,5-hexahydropyrazino[1,2-d]pyrido[2,3-b][1,4]oxazine-8-carboxamide] | 5.30 to 6.30 | < 1 nM | 50 to 75% | < 1 nM | 50 to 75% |  |
|  | O=C1CCC(N2Cc3cc4c(cc3C2=O)OC[C@@H]2CN(CC3CCN(c5ccc([C@H]6c7ccc(O)cc7OC[C@H]6c6ccccc6)cn5)CC3)CCN42)C(=O)N1 (single isomer, unassigned) [Compound A61] | 6.30 to 7.30 | 1 to 10 nM | 25 to 50% | 1 to 10 nM | 50 to 75% |  |
|  | COc1cc(C(=O)N[C@@H]2CCC(=O)NC2=O)ncc1N1CCN(CC2CCC3(CC2)CN(c2ccc([C@H]4c5ccc(O)cc5OC[C@H]4c4ccccc4)cc2)C3)CC1 (single isomer, unassigned) [Compound A144] | 5.30 to 6.30 | 10 to 100 nM | 25 to 50% | > 100 nM | < 25% |  |
|  | O=C1CC[C@@H](N2Cc3c(ccc4c3OC[C@@H]3CN(CC5COC6(CCN(c7ccc([C@@H]8c9ccc(O)cc9OC[C@@H]8c8ccccc8)cc7F)CC6)C5)CCN43)C2=O)C(=O)N1 (single isomer, unassigned) [Compound A158] | > 7.30 | < 1 nM |  | < 1 nM |  |  |
